Where a name gives a salt, the structure may show the parent alone.

The first assay has as its system Mycobacterium tuberculosis H37Rv. The assay can be described thus: Mycobacterium tuberculosis H37Rv Inhibition Assay. Type of assay: cell-based. The conditions noted are these: ATCC 25618 / H37Rv, H37Rv strain (ATCC25618), Middlebrook 7H9+ADC, resazurin fluorescence, read-out: MIC value. Background: Resazurin is reduced to fluorescent resorufin, in cell work by metabolically active cells.
`Cl.O=c1cnc2ccc(=O)n3c2n1CC[C@H]3CN1CCC(NCc2ccc3c(c2)OCCO3)CC1` [Example 17B, (6S)-6-({4-[(2,3-Dihydro-1,4-benzodioxin-6-ylmethyl)amino]-1-piperidinyl}methyl)-5,6-dihydro-3H,4H,7H-1,3a,6a-triazaphenalene-3,7-dione hydrochloride]: the minimal inhibitory concentration (MIC) (usually the lowest concentration that inhibits growth of the organism) is under 4 µg/mL.

Still in this assay, the particulars now being: ATCC 25618 / H37Rv, read-out: MIC value.
In the case of `O=c1cnc2ccc(=O)n3c2n1CCC3CN1CCC(NCc2cc3c(cn2)OCCO3)CC1` (stereo not drawn) [Example 1, 6-([4-[(2,3-Dihydro[1,4]dioxino[2,3-c]pyridin-7-ylmethyl)amino]-1-piperidinyl]methyl)-5,6-dihydro-3H,4H,7H-1,3a,6a-triazaphenalene-3,7-dione dihydrochloride], the minimum inhibitory concentration (MIC) is over 4 µg/mL.

In the case of `O=c1cnc2ccc(=O)n3c2n1CCC3CN1CCC(NCc2cc3c(cn2)OCS3)CC1` (stereo not drawn) [Example 2, 6-({4-[([1,3]Oxathiolo[5,4-c]pyridin-6-ylmethyl)amino]-1-piperidinyl}methyl)-5,6-dihydro-3H,4H,7H-1,3a,6a-triazaphenalene-3,7-dione dihydrochloride], the MIC was over 4 µg/mL.

As to `O=C1CSc2ccc(CNC3CCN(CC4CCn5c(=O)cnc6ccc(=O)n4c65)CC3)nc2N1` (stereo not drawn) [Example 4, 6-[(4-{[(3-oxo-3,4-dihydro-2H-pyrido[3,2-b][1,4]thiazin-6-yl)methyl]amino}-1-piperidinyl)methyl]-5,6-dihydro-3H,4H,7H-1,3a,6a-triazaphenalene-3,7-dione dihydrochloride], the MIC is under 400 µg/mL. Turning to `O=c1ccc2ncc(=O)n3c2n1CCC3CN1CCC(NCc2cc3c(cn2)OCS3)CC1` (stereo not drawn) [Example 8, 4-({4-[([1,3]Oxathiolo[5,4-c]pyridin-6-ylmethyl)amino]-1-piperidinyl}methyl)-5,6-dihydro-3H,4H,7H-1,3a,6a-triazaphenalene-3,7-dione dihydrochloride], the MIC is over 4 µg/mL. Consider `O=c1ccc2ncc(=O)n3c2n1CC[C@H]3CN1CCC(NCc2cc3c(cn2)OCCS3)CC1` [Example 9, (4S)-4-({4-[(2,3-Dihydro[1,4]oxathiino[2,3-c]pyridin-7-ylmethyl)amino]-1-piperidinyl}methyl)-5,6-dihydro-3H,4H,7H-1,3a,6a-triazaphenalene-3,7-dione dihydrochloride], for which the minimum inhibitory concentration (MIC) was over 4 µg/mL.

For `O=c1ccc2ccc(=O)n3c2n1CCC3CN1CCC(NCc2cc3c(cn2)OCS3)CC1` (stereo not drawn) [Example 11, 5-({4-[([1,3]Oxathiolo[5,4-c]pyridin-6-ylmethyl)amino]-1-piperidinyl}methyl)-6,7-dihydro-3H,5H,9H-pyrimido[1,2,3-ij]-1,8-naphthyridine-3,9-dione dihydrochloride], the minimum inhibitory concentration (MIC) was under 4 µg/mL. Same read-out and setting: as for `N#Cc1cc(CNC2CCN(C[C@@H]3CCn4c(=O)cnc5ccc(=O)n3c54)CC2)cc2c1OCCO2` [Example 15, 7-{[(1-{[(6S)-3,7-Dioxo-5,6-dihydro-3H,4H,7H-1,3a,6a-triazaphenalen-6-yl]methyl}-4-piperidinyl)amino]methyl}-2,3-dihydro-1,4-benzodioxin-5-carbonitrile dihydrochloride], the figure is under 4 µg/mL. The same measure, in the same setting: as for `O=c1cnc2ccc(=O)n3c2n1CC[C@H]3CN1CCC(NCc2cc3c(cc2F)OCCO3)CC1` [Example 16, (6S)-6-[(4-{[(7-Fluoro-2,3-dihydro-1,4-benzodioxin-6-yl)methyl]amino}-1-piperidinyl)methyl]-5,6-dihydro-3H,4H,7H-1,3a,6a-triazaphenalene-3,7-dione dihydrochloride], the figure is over 4 µg/mL.

The values are drawn from patent US20110009394A1, “TRICYCLIC NITROGEN COMPOUNDS AND THEIR USE AS ANTIBACTERIAL AGENTS” (Glaxo Group Limited, priority 2008, published 2011).
